Values joined by “and” are separate entries in the source; they are usually repeats but may differ in a detail not shown here. Equal entries are not always repeated. Where two headings read alike, the source gives them in different places.
Experiments:
[1] = test system: zein, yellow corn (maize) protein
Method: The zein test is based on solubilization by surfactants of a yellow corn (maize) protein that is normally insoluble in water unless it is denatured. The test gravimetrically determines the amount of zein dissolved by a surfactant solution. The solubility of zein in surfactant solutions correlates well with skin irritation or roughness caused by the surfactant. […] A higher zein number corresponds to a greater degree of irritation.
A 1% actives solution of each test surfactant (120 mL) is prepared. The pH of each solution is adjusted to about 7.0 with dilute aq. sulfuric acid or dilute aq. sodium hydroxide. The surfactant solution is warmed to 45° C. Zein powder (1.50 g) is added to each of three jars. Surfactant (25.0 g of 1% actives solution) is added to each jar, and to one empty jar to be used as a blank. The solutions are mixed using magnetic stirring on a temperature-controlled hotplate at 45° C. for 60 min. Each mixture is then centrifuged (2500 rpm, 15 min.), and undissolved zein powder is isolated by vacuum filtration. The residue is washed with deionized water and dried (55° C., 24 h) to constant weight. The amount of undissolved zein protein is found gravimetrically, and the results from three runs are averaged to give the % of solubilized zein and zein number.

[2] = assay type: physicochemical; conditions: for Rating: overall, versus control
Method: Surfactant candidates for water soluble herbicide applications are examined as a replacement for the anionic, nonionic, or anionic/nonionic blend portion and compared to a known industry adjuvant standard for use in paraquat, a water soluble herbicide concentrate formulation. A standard dilution test is conducted whereby the concentrates are diluted in water to determine if solubility is complete.
A known industry paraquat adjuvant (2.8 g) is added and vigorously mixed for 30 s. Deionized water (8.07 g) is added, and mixing resumes for 30 s. […] The cylinder is stoppered and inverted ten times. Solubility is recorded as complete or incomplete. Cylinders are allowed to stand and the amount (in mL) and type of separation are recorded after 30 min., 1 h, 2 h, and 24 h. Results of the solubility testing appear in Table 4 below.
An eight to ten mole alkyl phenol ethoxylate surfactant (0.7 g) is added and vigorously mixed for 30 s. Test sample (0.7 g) is added and mixing resumes for 30 s. Deionized water (4.03 g) is added, and mixing resumes for 30 s.
Test sample (0.7 g) is added and vigorously mixed for 30 s. Sodium linear alkylbenzene sulfonate (“NaLAS,” 0.7 g) is added and mixing resumes for 30 s. Deionized water (4.03 g) is added, and mixing resumes for 30 s.
Test sample (1.4 g) is added and vigorously mixed for 30 s. Deionized water (4.03 g) is added, and mixing resumes for 30 s.

[3] = Surfactant phase behavior study by cross-polarized microscopy; assay type: physicochemical; conditions: in deionized water, room temperature (20-22° C.); boundaries are estimates (±5%)
Method: Phase behavior is observed using an Olympus BH-2 cross-polarized microscope at 100-400× and room temperature (20° C. to 22° C.). The monounsaturated C11 alcohol derivatives (sulfates, ethoxylate sulfates, and alcohol ethoxylates) are compared with their saturated analogs. Samples are prepared by diluting the most concentrated product gradually with deionized water. When the surfactant concentration approaches a phase transition, the concentration is varied at 2-4% intervals to estimate the phase boundary. The actives level reported in Table 6 for each phase boundary is within ±5% of the true boundary. Samples are loaded between a microscope slide and cover glass and are allowed to equilibrate before observation. Microscopic texture is analyzed and used to determine the phase. For some samples, an AR 2000 rheometer (TA Instruments) is used to measure viscosity at 25° C. to further verify phase behavior.

[4] = Interfacial tension (IFT) against light mineral oil, synergy study with cationic surfactant; assay type: physicochemical; conditions: for IFT at 0.1% actives/mineral oil (blend): 1:1 molar blend of the anionic with Ammonyx Cetac 30, 0.1% actives, light mineral oil; for Calculated IFT (no synergy): expected IFT of the 1:1 molar blend with Ammonyx Cetac 30 by ideal mixing; for Synergy?: measured versus expected IFT of the 1:1 molar blend with Ammonyx Cetac 30; for IFT at 0.1% actives (single component): 0.1 wt. % active against light mineral oil, ambient temperature
Method: (§1) The surfactant blends tested are prepared at a 1:1 molar ratio without any pH adjustment. Dilutions are made using deionized water to the desired actives level. Actives amounts are wt. % unless indicated otherwise. Appearances are reported at ambient temperature for samples prepared within the last 24 h.
Interfacial tension (IFT) of all the individual components and their blends is measured at 0.1 wt. % active against light mineral oil at ambient temperature using a Kruss DSA-20 pendent drop tensiometer. The drop is blown out at 600 μL/min., and a video is recorded for 100 s. The video frames taken during the last 15 s are analyzed and used for the IFT calculation.
For blends having an IFT less than 0.5 mN/m, the IFT is determined using a spinning drop tensiometer (University of Texas 500) at 25° C. Oil density=0.877 g/cm^3 and surfactant density=0.997 g/cm^3 are used for the IFT calculation.
The expected IFT for a blend is calculated based on ideal mixing (non-synergistic) using the active component in each blend. The equation used is given as: Expected IFT=X*IFTa+(1−X)*IFTb where X is the actives % of component A, IFTa is the IFT of component A, and IFTb is the IFT of component B. If the measured IFT for a blend is less than the expected IFT, then the blend is synergistic. If the measured IFT for a blend is higher than the expected IFT, the system is antagonistic.

[5] = Appearance and solubility of surfactants and of 1:1 molar blends with cationic surfactant; assay type: physicochemical; conditions: for Appearance, 0.1%: 1:1 molar blend of the anionic with Ammonyx Cetac 30, 0.1% actives; for Appearance, 0.1% / Appearance, 1.0%: ambient temperature; for Appearance, 1.0%: 1:1 molar blend of the anionic with Ammonyx Cetac 30, 1.0% actives
Method: as §1

[6] = 1% actives solution, pH about 7.0, 45° C., 60 min, average of three runs
[7] = relative to 1% actives Stepanol WA-Extra PCK (SLS) control = 100, higher = more irritating, average of three runs
[8] = Adjuvant (anionic/nonionic) test sample, 342 ppm water
[9] = Anionic test sample, 342 ppm water
[10] = Nonionic test sample, 342 ppm water
[11] = corn (maize), 60 min, 1 % actives, pH 7

Compound | Emulsion stability, mL separation, 1 h [2, 8] [mL] | Emulsion stability, mL separation, 24 h [2, 8] [mL] | Emulsion stability, mL separation, 1 h [2, 9] [mL] | Emulsion stability, mL separation, 24 h [2, 9] [mL] | Emulsion stability, mL separation, 1 h [2, 10] [mL] | Emulsion stability, mL separation, 24 h [2, 10] [mL] | Rating [2] | Estimated Phase Region as a Function of % Actives Level: Isotropic Clear [3] | Estimated Phase Region as a Function of % Actives Level: Solid/gum/paste [3] | IFT at 0.1% actives/mineral oil (blend) [4] [mN/m] | Calculated IFT (no synergy) [4] [mN/m] | IFT at 0.1% actives (single component) [4] | Solubility [5] | Estimated Phase Region as a Function of % Actives Level: Hexagonal [3] | Synergy? [4] | Appearance, 1.0% [5] | Estimated Phase Region as a Function of % Actives Level: Lamellar [3] | further results
Undecylenic Alcohol Sulfate, Sodium Salt [Unsat. C11 alcohol Na sulfate] | 0 | 0.25 | 0 | 0 | 0.25 | 0.4 | good | 0-68 % actives | 68-100 % actives | 0.17 | 3.16 | 5.95 mN/m | good | – | – | – | – | % solubilized zein [1, 6]: 9.6%; zein number [1, 7]: 19.3; Synergy? ([4]; listed as Unsat C11 Na sulfate, Sulfate, Sodium Salt): very high; Synergy? ([4]; listed as unsaturated C11 alcohol sulfate, sodium salt, Sulfate, Sodium Salt): very high synergy
CCCCCCCCCCCOS(=O)(=O)[O-].[Na+] [Sat. C11 alcohol Na sulfate, 1-Undecanol Sulfate, Sodium Salt] | 0.2 | 0.4 | 0 | 0 | 0.2 | 0.3 | good | 0-33 % actives | 43-100 % actives | 2.67 | 8.35 | 16.34 mN/m | – | 33-43 % actives | above average | separated | – | % solubilized zein [1, 11]: 52.9%; zein number [1, 11]: 107; sol (solubility) [2, 8]: I; sol (solubility) ([2]; Anionic test sample: replaces anionic portion, paraquat concentrate in 342 ppm water, 30° C.): S; sol (solubility) ([2]; Nonionic test sample: replaces nonionic portion (with NaLAS), 342 ppm water): I; Solubility ([5]; 1:1 molar blend of the anionic with Ammonyx Cetac 30): poor; Appearance, 0.1% [5]: separated
Undecylenic Alcohol, 3EO Ether Sulfate, Sodium Salt [Unsat. C11 alcohol 3EO Na sulfate] | 0 | – | 0 | 0 | 0.2 | 0.5 | good | 0-70 % actives | 80-100 % actives | 0.17 | 2.73 | 5.10 mN/m | good | – | high | hazy liquid | – | % solubilized zein [1, 6]: 16.5%; zein number [1, 7]: 31.6; Estimated Phase Region as a Function of % Actives Level: Solid/isotropic [3]: 70-80 % actives
1-Undecanol, 1EO Ether Sulfate, Ammonium Salt [Sat. 1EO NH4 sulfate] | – | – | 0 | – | – | 0 | good | 0-26 % actives | 85-100 % actives | 0.85 | 6.2 | 12.40 mN/m | – | 26-58 % actives | high | – | 67-85 % actives | Estimated Phase Region as a Function of % Actives Level: Cubic [3]: 58-67 % actives
CCCCCCCCCCCCCCCC[N+](C)(C)C.[Cl-] [Ammonyx ® Cetac 30 (cetrimonium CI), cetrimonium CI] | – | – | – | – | – | – | – | – | – | – | – | 0.35 mN/m and 0.38 mN/m | – | – | – | – | – | –
1-Undecanol, 3EO Ether Sulfate, Sodium Salt [Sat. C11 alcohol 3EO Na sulfate] | 0 | – | 0 | 0 | 0.1 | 0.5 | good | 0-33 % actives | 82-100 % actives | 0.03 | 4.58 | 8.80 mN/m | fair-poor | 33-58 % actives | very high | separated | 58-82 % actives | % solubilized zein [1]: 22.3%; zein number [1]: 44.9; Appearance, 0.1% [5]: hazy liquid
Undecylenic Alcohol, 1EO Ether Sulfate, Ammonium Salt [Unsat. 1EO NH4 sulfate] | 0 | 0 | – | 0 | 0 | – | good | 0-31 % actives | 91-100 % actives | 0.60 | 8.8 | 17.22 mN/m | – | 31-58 % actives | very high | – | 58-91 % actives | –
